# Reference: patent US20060281901A1, “Method for the production of amyloid-beta peptide using ubiquitin” (priority 2005, published 2006)
# Assays:
# [1] = system: Human neuroblastoma SH-SY5Y cell line; assay: MTT assay of cell activity (mitochondria dehydrogenase activity); assay type: cell-based; settings: for degree of suppression of the cell activity by concentration (MTT): SH-SY5Y cells, 1, 2 or 4 μM, 24 hrs, FIG. 4A
# Procedure: To compare the physiological activity of the genetic recombinant amyloid-β peptide produced according to the present invention with that of the amyloid-β peptide produced by a chemical synthetic method, their mitochondrial activities in eykaryotic cells were examined as follows:
# First, 0.45 mg of the amyloid-β peptide prepared in Example 3 was dissolved in 20 μl of dimethyl sulfoxide, and 980 μl of DMEM was added thereto, to prepare the amyloid-β peptide solution at a concentration of 100 μM, which was stored at 4[…] for 24 hrs and subjected to centrifugation to separate the supernatant from the precipitate. The supernatant was distributed to an eppendorf tube at a volume of 50 μl and stored at −80[…].
# (§1) Human neuroblastoma SH-SY5Y cell line (ATCC CRL-2266) was suspended in DMEM containing 10% FBS, distributed to each well of a 96-well plate at a concentration of 7×10^3 cells/well, and then, cultured at 37 °C for 24 hrs. The genetic recombinant amyloid-β peptide solution prepared above was added to each well at a concentration of 1, 2 or 4 μM, and the well plate was incubated at 37 °C for 24 hrs. The cell activity was measured by means of MTT (3-(4,5-dimethylthiazol-2-yl)-2,5-diphenyltetrazolium bromide) assay which is capable of measuring the in vivo mitochondria dehydrogenase activity. MTT was added to each well at a concentration of 0.8 mg/ml, and the reactants in the well were allowed to react at 37 °C for 5 hrs to induce in vivo dehydrogenase reaction of mitochondria. Formazan crystals generated from such reaction were dissolved in dimethyl sulfoxide and its adsorbance was measured at 550 nm.
# Also shown in FIG. [[4a]]4A are the results obtained using the recombinant ubiquitin (H6Ub: ●) control, the ubiquitin-amyloid-β peptide fusion protein (H6Ub-Aβ42: ▪) and the chemically synthesized amyloid-β peptide (Aβ42: □).
# [2] = system: Human neuroblastoma SH-SY5Y cell line; assay: level of apoptosis by trypan blue staining; assay type: cell-based; settings: 5 μM, 36 hrs, FIG. 4C
# Procedure: as §1
# After the cells were treated with 5 μM of the amyloid-β peptide for 36 hrs, black cells stained with trypan blue were examined to determine the level of apoptosis induced.
# [3] = listed as recombinant amyloid-β peptide
substance,measurement,setting,value
"rAβ42: genetic recombinant amyloid-β peptide (amyloid-beta42, SEQ ID NO: 19) cleaved from a ubiquitin fusion protein expressed in E. coli",changes in the cell activity according to the treatment time (MTT),"[1]; SH-SY5Y cells, 5 μM, 12, 24 and 48 hrs, FIG. 4B","as the treatment time becomes longer, the cell activity becomes further reduced"
same,degree of suppression of the cell activity by concentration (MTT),[1],can suppress the cell activity just like the chemically synthesized amyloid-β peptide
same,degree of suppression of the cell activity by concentration (MTT),[1]; [3],can suppress the cell activity
same,level of apoptosis induced (trypan blue staining),[2],"showed an apoptotic activity, which was significantly higher than the recombinant ubiquitin (H6Ub) or ubiquitin-amyloid fusion protein (H6Ub-Aβ42), the activity being equal to, or slightly higher than, the chemically synthesized amyloid-β peptide (Aβ42)"
same,level of apoptosis induced (trypan blue staining),[2]; [3],induce apoptosis to an extent which is equal to that achievable with chemically synthesized amyloid-β peptide
